Laboratory results as given in the OligoGym collection.
“And” between values parts separate entries of the source, which are not always exact repeats. Equal entries are not always repeated. After the bases stand the sugars from the 5' end (letter, count) and the backbone: PS all phosphorothioate, else s phosphorothioate and o phosphodiester by linkage. Methylation of C is not given here. e = 2'-O-(2-methoxyethyl) (MOE); k = constrained ethyl (cEt); d = 2'-deoxy (DNA)

Target: SOD1
Conditions: ASO

Question: For “CCGTCGCCCTTCAGCACGCA (sugars e5 d10 e5, linkages s1 o4 s10 o2 s2)”, which target mRNA inhibition (A431, 0.062 µM) is on record?
Answer: Its target mRNA inhibition is 12%.

Question: And the target mRNA inhibition (A431, 0.185 µM)?
Answer: The target mRNA inhibition was 13%.

Question: What about the target mRNA inhibition (A431, 0.556 µM) of the same sequence?
Answer: The target mRNA inhibition was 14%.

Question: And the target mRNA inhibition (A431, 1.667 µM)?
Answer: Its target mRNA inhibition is 4%.

Question: What about the target mRNA inhibition (A431, 5 µM) of the same sequence?
Answer: The target mRNA inhibition was 18%.

Question: And the target mRNA inhibition (A431, 15 µM)?
Answer: Its target mRNA inhibition is 7%.

Question: What about the target mRNA inhibition (SH-SY5Y, 0.062 µM) of the same sequence?
Answer: Its target mRNA inhibition is 16%.

Question: And the target mRNA inhibition (SH-SY5Y, 0.185 µM)?
Answer: Its target mRNA inhibition is 5%.

Question: What about the target mRNA inhibition (SH-SY5Y, 0.556 µM) of the same sequence?
Answer: The target mRNA inhibition was 19%.

Question: And the target mRNA inhibition (SH-SY5Y, 1.667 µM)?
Answer: Its target mRNA inhibition is 36%.

Question: And the target mRNA inhibition (SH-SY5Y, 5 µM)?
Answer: Its target mRNA inhibition is 68%.

Question: And the target mRNA inhibition (SH-SY5Y, 15 µM)?
Answer: Its target mRNA inhibition is 80%.

Question: Which target mRNA inhibition (HepG2, 4 µM) does the source give for “CGCCATAACTCGCTAGGCCA (sugars e5 d10 e5, PS)” here?
Answer: Its target mRNA inhibition is 59%.

Question: For “CGCCCACTCTGGCCCCA (sugars e3 k2 d7 k2 e3, PS)”, which target mRNA inhibition (HepG2, 3 µM) is on record?
Answer: The target mRNA inhibition was 14%.

Question: Which target mRNA inhibition (HepG2, 3 µM) does the source give for “CGCGACTACTTTATAGG (sugars e3 k2 d7 k2 e3, PS)” here?
Answer: Its target mRNA inhibition is 11%.

Question: How did the target mRNA inhibition (HepG2, 4 µM) turn out when “CGCTAGGCCACGCCGAGGTC (sugars e5 d10 e5, PS)” was run?
Answer: Its target mRNA inhibition is 52%.

Question: How did the target mRNA inhibition (HepG2, 4 µM) turn out when “CGCTGCAGGAGACTACGACG (sugars e5 d10 e5, PS)” was run?
Answer: The target mRNA inhibition was 23%.

Question: “CTACAGCTAGCAGGATA (sugars e2 k2 d9 k2 e2, PS)” was tested. Which target mRNA inhibition (HepG2, 0.1875 µM) did it give?
Answer: The target mRNA inhibition was 30%.

Question: What about the target mRNA inhibition (HepG2, 0.75 µM) of the same sequence?
Answer: Its target mRNA inhibition is 80%.

Question: What about the target mRNA inhibition (HepG2, 3 µM) of the same sequence?
Answer: Its target mRNA inhibition is 93%.

Question: And the target mRNA inhibition (HepG2, 4 µM)?
Answer: The target mRNA inhibition was 91%.

Question: What about the target mRNA inhibition (HepG2, 12 µM) of the same sequence?
Answer: Its target mRNA inhibition is 97%.

Question: With “CTACAGCTAGCAGGATA (sugars e3 k2 d7 k2 e3, PS)” as the sequence, how does the target mRNA inhibition (HepG2, 0.1875 µM) read?
Answer: Its target mRNA inhibition is 44%.

Question: And the target mRNA inhibition (HepG2, 0.75 µM)?
Answer: Its target mRNA inhibition is 62%.

Question: And the target mRNA inhibition (HepG2, 3 µM)?
Answer: Its target mRNA inhibition is 55% and 80%.

Question: What about the target mRNA inhibition (HepG2, 12 µM) of the same sequence?
Answer: The target mRNA inhibition was 86%.

Question: “CTACAGGTACTTTAAAG (sugars e2 k2 d9 k2 e2, PS)” was tested. Which target mRNA inhibition (HepG2, 5 µM) did it give?
Answer: Its target mRNA inhibition is 16%.

Question: How did the target mRNA inhibition (HepG2, 5 µM) turn out when “CTCACTACAGGTACTTT (sugars e2 k2 d9 k2 e2, PS)” was run?
Answer: The target mRNA inhibition was 54%.

Question: For “CTCAGACTACATCCAAG (sugars e2 k2 d9 k2 e2, PS)”, which target mRNA inhibition (HepG2, 0.1875 µM) is on record?
Answer: Its target mRNA inhibition is 0%.

Question: And the target mRNA inhibition (HepG2, 0.75 µM)?
Answer: Its target mRNA inhibition is 40%.

Question: And the target mRNA inhibition (HepG2, 3 µM)?
Answer: Its target mRNA inhibition is 78%.

Question: What about the target mRNA inhibition (HepG2, 4 µM) of the same sequence?
Answer: Its target mRNA inhibition is 76%.

Question: What about the target mRNA inhibition (HepG2, 12 µM) of the same sequence?
Answer: Its target mRNA inhibition is 92%.

Question: What does the source list for “CTCAGACTACATCCAAG (sugars e3 k2 d7 k2 e3, PS)”?
Answer: target mRNA inhibition (HepG2, 0.1875 µM): 42%; target mRNA inhibition (HepG2, 0.75 µM): 72%; target mRNA inhibition (HepG2, 3 µM): 76% and 88%; target mRNA inhibition (HepG2, 12 µM): 90%

Question: Which target mRNA inhibition (HepG2, 5 µM) does the source give for “CTCATAATAAGTGCCAT (sugars e2 k2 d9 k2 e2, PS)” here?
Answer: The target mRNA inhibition was 44%.

Question: How did the target mRNA inhibition (HepG2, 4 µM) turn out when “CTCGCTAGGCCACGCCGAGG (sugars e5 d10 e5, PS)” was run?
Answer: Its target mRNA inhibition is 46%.

Question: How did the target mRNA inhibition (HepG2, 3 µM) turn out when “CTCTTCATCCTTTGGCC (sugars e3 k2 d7 k2 e3, PS)” was run?
Answer: The target mRNA inhibition was 26%.

Question: Which target mRNA inhibition (HepG2, 5 µM) does the source give for “CTGACAAGTTTAATACC (sugars e2 k2 d9 k2 e2, PS)” here?
Answer: The target mRNA inhibition was 36%.

Question: With “CTGCACTGGGCCGTCGCCCT (sugars e5 d10 e5, PS)” as the sequence, how does the target mRNA inhibition (HepG2, 4 µM) read?
Answer: Its target mRNA inhibition is 24%.

Question: With “CTGCACTGGTACAGCCTGCT (sugars e5 d10 e5, PS)” as the sequence, how does the target mRNA inhibition (HepG2, 5 µM) read?
Answer: The target mRNA inhibition was 38% and 29%.

Question: With “CTGCTTTTTCATGGACC (sugars e3 k2 d7 k2 e3, PS)” as the sequence, how does the target mRNA inhibition (HepG2, 3 µM) read?
Answer: The target mRNA inhibition was 65%.

Question: “CTTCACTGGTCCATTAC (sugars e3 k2 d7 k2 e3, PS)” was tested. Which target mRNA inhibition (HepG2, 3 µM) did it give?
Answer: Its target mRNA inhibition is 11%.

Question: How did the target mRNA inhibition (HepG2, 3 µM) turn out when “CTTCATCCTTTGGCCCA (sugars e3 k2 d7 k2 e3, PS)” was run?
Answer: The target mRNA inhibition was 35%.

Question: With “CTTCCAAGTGATCATAA (sugars e2 k2 d9 k2 e2, PS)” as the sequence, how does the target mRNA inhibition (HepG2, 5 µM) read?
Answer: The target mRNA inhibition was 54%.

Question: How did the target mRNA inhibition (HepG2, 3 µM) turn out when “CTTTCTTCATTTCCACC (sugars e3 k2 d7 k2 e3, PS)” was run?
Answer: Its target mRNA inhibition is 11%.

Question: How did the target mRNA inhibition (HepG2, 5 µM) turn out when “CTTTGGCCCACCGTGTTTTC (sugars e5 d10 e5, PS)” was run?
Answer: The target mRNA inhibition was 31% and 15%.

Question: How did the target mRNA inhibition (HepG2, 3 µM) turn out when “GAACATGGAATCCATGC (sugars e3 k2 d7 k2 e3, PS)” was run?
Answer: The target mRNA inhibition was 9%.

Question: For “GAATGACAAAGAAATTCTGA (sugars e5 d10 e5, PS)”, which target mRNA inhibition (HepG2, 5 µM) is on record?
Answer: Its target mRNA inhibition is 0%.

Question: How did the target mRNA inhibition (HepG2, 4 µM) turn out when “GAATGTTTATTGGGCGA (sugars e2 k2 d9 k2 e2, PS)” was run?
Answer: Its target mRNA inhibition is 65%.

Question: How did the target mRNA inhibition (HepG2, 3 µM) turn out when “GAATGTTTATTGGGCGA (sugars e3 k2 d7 k2 e3, PS)” was run?
Answer: The target mRNA inhibition was 14%.

Question: “GACAAGTTTAATACCCA (sugars e2 k2 d9 k2 e2, PS)” was tested. Which target mRNA inhibition (HepG2, 5 µM) did it give?
Answer: Its target mRNA inhibition is 59%.

Question: “GACCACCAGTGTGCGGCCAA (sugars e5 d10 e5, PS)” was tested. Which target mRNA inhibition (HepG2, 5 µM) did it give?
Answer: Its target mRNA inhibition is 16%.

Question: With “GACTACATCCAAGGGAA (sugars e2 k2 d8 k2 e3, PS)” as the sequence, how does the target mRNA inhibition (HepG2, 4 µM) read?
Answer: Its target mRNA inhibition is 50%.

Question: With “GACTACATCCAAGGGAA (sugars e2 k2 d9 k2 e2, PS)” as the sequence, how does the target mRNA inhibition (HepG2, 4 µM) read?
Answer: The target mRNA inhibition was 57%.

Question: “GAGATCACAGAATCTTC (sugars e3 k2 d7 k2 e3, PS)” was tested. Which target mRNA inhibition (HepG2, 3 µM) did it give?
Answer: Its target mRNA inhibition is 13%.

Question: “GAGGATTAAAGTGAGGA (sugars e3 k2 d7 k2 e3, PS)” was tested. Which target mRNA inhibition (HepG2, 3 µM) did it give?
Answer: The target mRNA inhibition was 40%.

Question: How did the target mRNA inhibition (A431, 0.12 µM) turn out when “GATACATTTCTACAGC (sugars kekeddddddddekek, linkages s1 o3 s8 o1 s2)” was run?
Answer: The target mRNA inhibition was 12%.

Question: What about the target mRNA inhibition (A431, 0.6 µM) of the same sequence?
Answer: Its target mRNA inhibition is 22%.

Question: What about the target mRNA inhibition (A431, 3 µM) of the same sequence?
Answer: The target mRNA inhibition was 21%.

Question: What about the target mRNA inhibition (A431, 15 µM) of the same sequence?
Answer: The target mRNA inhibition was 34%.

Question: And the target mRNA inhibition (HepG2, 0.222 µM)?
Answer: Its target mRNA inhibition is 54%.

Question: What about the target mRNA inhibition (HepG2, 0.667 µM) of the same sequence?
Answer: Its target mRNA inhibition is 78%.

Question: What about the target mRNA inhibition (HepG2, 2 µM) of the same sequence?
Answer: The target mRNA inhibition was 89%.

Question: What about the target mRNA inhibition (HepG2, 6 µM) of the same sequence?
Answer: The target mRNA inhibition was 96%.

Question: With “GATACATTTCTACAGCTAGC (sugars e5 d10 e5, PS)” as the sequence, how does the target mRNA inhibition (HepG2, 4 µM) read?
Answer: Its target mRNA inhibition is 78%.

Question: And the target mRNA inhibition (HepG2, 12 µM)?
Answer: Its target mRNA inhibition is 90%.

Question: For “GATCATAAATCAGTTTC (sugars e2 k2 d9 k2 e2, PS)”, which target mRNA inhibition (HepG2, 5 µM) is on record?
Answer: Its target mRNA inhibition is 38%.

Question: With “GATCCCAATTACACCAC (sugars e2 k2 d9 k2 e2, PS)” as the sequence, how does the target mRNA inhibition (HepG2, 4 µM) read?
Answer: The target mRNA inhibition was 58%.
